The structures appear in SMILES notation.

These results are taken from publication PMC4724694 (Acta Pharmaceutica Sinica. B, 2016).

Experiment [1] has as its target T1, 5-LOX (Rattus norvegicus, UniProt P12527).
T1 sequence (P12527 1-673): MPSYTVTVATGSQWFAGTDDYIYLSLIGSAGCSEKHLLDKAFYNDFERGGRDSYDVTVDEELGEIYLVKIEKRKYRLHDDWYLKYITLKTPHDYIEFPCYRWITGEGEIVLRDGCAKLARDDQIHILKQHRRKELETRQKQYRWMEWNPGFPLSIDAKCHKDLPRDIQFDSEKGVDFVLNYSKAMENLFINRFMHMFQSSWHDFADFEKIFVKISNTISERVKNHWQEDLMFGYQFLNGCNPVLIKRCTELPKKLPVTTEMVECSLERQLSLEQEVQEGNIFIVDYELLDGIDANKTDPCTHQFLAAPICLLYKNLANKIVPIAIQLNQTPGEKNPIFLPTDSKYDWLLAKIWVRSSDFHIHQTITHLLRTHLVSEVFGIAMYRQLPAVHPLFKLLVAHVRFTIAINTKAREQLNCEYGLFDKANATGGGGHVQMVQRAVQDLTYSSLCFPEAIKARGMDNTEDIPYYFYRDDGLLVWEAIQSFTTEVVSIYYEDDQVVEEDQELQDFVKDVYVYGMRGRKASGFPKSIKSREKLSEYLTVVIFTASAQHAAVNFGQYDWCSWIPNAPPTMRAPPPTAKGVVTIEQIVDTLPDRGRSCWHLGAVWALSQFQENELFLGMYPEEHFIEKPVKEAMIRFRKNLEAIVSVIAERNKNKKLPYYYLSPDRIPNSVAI
Nature of the experiment: Inhibition of 5-LOX product synthesis. Format: cell-based. The conditions noted are these: for inhibition at 5 µM: PMNL, read-out: Inhibition at 5 μmol/L (%); for IC50: IC50 PMNL, rat peritoneal polymorphonuclear leukocytes.

In experiment [2] the target is T2, 5-LOX (Homo sapiens, UniProt P09917).
T2 sequence (P09917 1-674): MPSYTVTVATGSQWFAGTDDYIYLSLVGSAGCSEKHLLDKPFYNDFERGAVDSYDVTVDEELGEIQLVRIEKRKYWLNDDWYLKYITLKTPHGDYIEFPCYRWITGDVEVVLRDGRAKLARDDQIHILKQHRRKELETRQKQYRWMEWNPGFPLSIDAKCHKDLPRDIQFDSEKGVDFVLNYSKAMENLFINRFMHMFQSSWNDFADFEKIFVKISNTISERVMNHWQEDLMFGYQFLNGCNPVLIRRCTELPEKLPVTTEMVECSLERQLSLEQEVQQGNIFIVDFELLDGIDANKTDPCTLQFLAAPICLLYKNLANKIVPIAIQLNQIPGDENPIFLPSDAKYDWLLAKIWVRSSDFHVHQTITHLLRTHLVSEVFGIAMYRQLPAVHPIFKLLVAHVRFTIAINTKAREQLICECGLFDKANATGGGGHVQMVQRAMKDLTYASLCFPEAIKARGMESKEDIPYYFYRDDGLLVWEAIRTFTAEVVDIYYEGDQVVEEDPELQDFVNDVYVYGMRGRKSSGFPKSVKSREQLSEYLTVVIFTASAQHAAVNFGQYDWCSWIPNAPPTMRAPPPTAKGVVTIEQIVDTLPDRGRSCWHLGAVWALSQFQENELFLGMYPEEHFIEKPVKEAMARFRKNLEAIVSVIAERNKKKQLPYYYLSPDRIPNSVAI
Nature of the experiment: Cell-free 5-LOX enzymatic assay. Format: biochemical.

In experiment [3] the target is T2, 5-LOX. The experiment in a line: Inhibition of 5-LOX product synthesis. The format is cell-based.

For `CC(C)(C)c1cc(NC(=O)c2cc(-c3ccccc3)n(-c3ccc(S(N)(=O)=O)cc3)n2)cc(C(C)(C)C)c1O` [4a, N-(3,5-di-tert-butyl-4-hydroxyphenyl)-1-(4-aminosulfonyl-phenyl)-5-phenyl-1H-pyrazole-3-carboxamide], the inhibition at 5 µM at 5-LOX [1] amounted to 55.7%.
With `Cc1ccc(-c2cc(C(=O)Nc3cc(C(C)(C)C)c(O)c(C(C)(C)C)c3)nn2-c2ccc(S(N)(=O)=O)cc2)cc1` [4b, N-(3,5-di-tert-butyl-4-hydroxyphenyl)-1-(4-aminosulfonylphenyl)-5-p-tolyl-1H-pyrazole-3-carboxamide], the inhibition at 5 µM at 5-LOX [1] was 65.7%.
As a reminder, the IC50 is the concentration needed to halve the response being measured. Low readings indicate greater potency, high ones weaker potency. `COc1ccc(-c2cc(C(=O)Nc3cc(C(C)(C)C)c(O)c(C(C)(C)C)c3)nn2-c2ccc(S(N)(=O)=O)cc2)cc1` [4c, N-(3,5-di-tert-butyl-4-hydroxyphenyl)-1-(4-aminosulfonylphenyl)-5-p-meth-oxyphenyl-1H-pyrazole-3-carboxamide]: the IC50 against 5-LOX [1] stood at 0.45 µM; at 5-LOX [2] it was 0.136 ± 0.015 µM; against 5-LOX [3] it was 4.87 µM. The inhibition at 5 µM on 5-LOX [1] amounted to 74.9%.
Turning to `CC(C)Cc1ccc(-c2cc(C(=O)Nc3cc(C(C)(C)C)c(O)c(C(C)(C)C)c3)nn2-c2ccc(S(N)(=O)=O)cc2)cc1` [4d, N-(3,5-di-tert-butyl-4-hydroxyphenyl)-1-(4-aminosulfonylphenyl)-5-p-iso-butylphenyl-1H-pyrazole-3-carboxamide], the inhibition at 5 µM on 5-LOX [1] came to 59%.
`CC(C)(C)c1cc(NC(=O)c2cc(-c3ccc4c(c3)OCCO4)n(-c3ccc(S(N)(=O)=O)cc3)n2)cc(C(C)(C)C)c1O` [4f, N-(3,5-di-tert-butyl-4-hydroxyphenyl)-5-(2,3-dihydrobenzo [1, 4]dioxin-7-yl)-1-(4-aminosulfonylphenyl)-1H-pyrazole-3-carboxamide]: at 5-LOX [1], the inhibition at 5 µM came out at 50.7%.
`CC(C)(C)c1cc(NC(=O)c2cc(-c3ccc4ccccc4c3)n(-c3ccc(S(N)(=O)=O)cc3)n2)cc(C(C)(C)C)c1O` [4g, N-(3,5-di-tert-butyl-4-hydroxyphenyl)-1-(4-aminosulfonylphenyl)-5-naphth-2-yl-1H-pyrazole-3-carboxamide]: the IC50 was 0.75 µM at 5-LOX [1], 0.165 ± 0.017 µM against 5-LOX [2] and 2.11 µM against 5-LOX [3]. For the same compound, on 5-LOX [1], the inhibition at 5 µM worked out at 66.1%.
Turning to `CC(C)(C)c1cc(NC(=O)c2cc(-c3ccc(F)cc3)n(-c3ccc(S(N)(=O)=O)cc3)n2)cc(C(C)(C)C)c1O` [4h, N-(3,5-di-tert-butyl-4-hydroxyphenyl)-1-(4-aminosulfonylphenyl)-5-p-fluorophenyl-1H-pyrazole-3-carboxamide], the inhibition at 5 µM on 5-LOX [1] was 39.3%.
A word on the Inhibition: it is the share of the control response that was lost under treatment. Low readings indicate a weak effect, high ones a strong effect. Take `CC(C)(C)c1cc(NC(=O)c2cc(-c3ccc(C(F)(F)F)cc3)n(-c3ccc(S(N)(=O)=O)cc3)n2)cc(C(C)(C)C)c1O` [4i, N-(3,5-di-tert-butyl-4-hydroxyphenyl)-1-(4-aminosulfonylphenyl)-5-p-trifluoromethylphenyl-1H-pyrazole-3-carboxamide]: the “Inhibition at 5 μmol/L (%)” value on 5-LOX [1] (rat PMNLs, 5 μmol/L, mean of three determinations) is given as 61.9%.
As to `CC(C)(C)c1cc(NC(=O)c2cc(C3CCCCC3)n(-c3ccc(S(N)(=O)=O)cc3)n2)cc(C(C)(C)C)c1O` [4j, N-(3,5-di-tert-butyl-4-hydroxyphenyl)-1-(4-aminosulfonylphenyl)-5-cyclo-hexyl-1H-pyrazole-3-carboxamide], on 5-LOX [1], the IC50 stood at 1.07 µM and the inhibition at 5 µM came out at 69.2%. Further, half-maximal inhibition at 5-LOX [3] (IC50) was put at 33.9 µM.
As for `CC(C)(C)c1cc(NC(=O)c2cc(-c3ccc(Br)s3)n(-c3ccc(S(N)(=O)=O)cc3)n2)cc(C(C)(C)C)c1O` [4k, N-(3,5-di-tert-butyl-4-hydroxyphenyl)-1-(4-aminosulfonylphenyl)-5-(5-bromothiophen-2-yl)-1H-pyrazole-3-carboxamide], the IC50 on 5-LOX [1] was 0.9 µM; on 5-LOX [2] it was 0.159 ± 0.016 µM; on 5-LOX [3] it was 5.83 µM. In addition, the inhibition at 5 µM at 5-LOX [1] was found to be 74.5%.
Turning to `CC(C)(C)c1cc(NC(=O)c2cc(-c3ccccc3)n(-c3ccc(S(C)(=O)=O)cc3)n2)cc(C(C)(C)C)c1O` [5a, N-(3,5-di-tert-butyl-4-hydroxyphenyl)-1-(4-methylsulfonylphenyl)-5-phenyl-1H-pyrazole-3-carboxamide], on 5-LOX [1], the inhibition at 5 µM stood at 41.9%.
As for `Cc1ccc(-c2cc(C(=O)Nc3cc(C(C)(C)C)c(O)c(C(C)(C)C)c3)nn2-c2ccc(S(C)(=O)=O)cc2)cc1` [5b, N-(3,5-di-tert-butyl-4-hydroxyphenyl)-1-(4-methylsulfonylphenyl)-5-p-tolyl-1H-pyrazole-3-carboxamide], the inhibition at 5 µM on 5-LOX [1] is 62.8%.
On the same count and under the same terms, in the case of `COc1ccc(-c2cc(C(=O)Nc3cc(C(C)(C)C)c(O)c(C(C)(C)C)c3)nn2-c2ccc(S(C)(=O)=O)cc2)cc1` [5c, N-(3,5-di-tert-butyl-4-hydroxyphenyl)-1-(4-methylsulfonylphenyl)-5-p-methoxyphenyl-1H-pyrazole-3-carboxamide] it was 35.6%; in that of `CC(C)Cc1ccc(-c2cc(C(=O)Nc3cc(C(C)(C)C)c(O)c(C(C)(C)C)c3)nn2-c2ccc(S(C)(=O)=O)cc2)cc1` [5d, N-(3,5-di-tert-butyl-4-hydroxyphenyl)-1-(4-methylsulfonylphenyl)-5-p-iso-butylphenyl-1H-pyrazole-3-carboxamide], 60.2%.
As for `CC(C)(C)c1cc(NC(=O)c2cc(-c3ccc4c(c3)OCO4)n(-c3ccc(S(C)(=O)=O)cc3)n2)cc(C(C)(C)C)c1O` [5e, N-(3,5-di-tert-butyl-4-hydroxyphenyl)-5-(benzo [1, 3]dioxol-5-yl)-1-(4-methylsulfonylphenyl)-1H-pyrazole-3-carboxamide], the IC50 against 5-LOX [1] came to 0.64 µM; against 5-LOX [2], 0.169 ± 0.016 µM; on 5-LOX [3], 0.94 µM. Moreover, the inhibition at 5 µM at 5-LOX [1] was determined as 79.3%.
For `CC(C)(C)c1cc(NC(=O)c2cc(-c3ccc4c(c3)OCCO4)n(-c3ccc(S(C)(=O)=O)cc3)n2)cc(C(C)(C)C)c1O` [5f, N-(3,5-di-tert-butyl-4-hydroxyphenyl)-5-(2,3-dihydrobenzo [1, 4]dioxin-7-yl)-1-(4-methylsulfonylphenyl)-1H-pyrazole-3-carboxamide], the results for the IC50 at 5-LOX [1], on 5-LOX [2] and against 5-LOX [3] were 0.81 µM, 0.273 ± 0.021 µM and 4.65 µM, respectively. In addition, at 5-LOX [1], the inhibition at 5 µM is 70.3%.
Consider `CC(C)(C)c1cc(NC(=O)c2cc(-c3ccc4ccccc4c3)n(-c3ccc(S(C)(=O)=O)cc3)n2)cc(C(C)(C)C)c1O` [5g, N-(3,5-di-tert-butyl-4-hydroxyphenyl)-1-(4-methylsulfonylphenyl)-5-naphth-2-yl-1H-pyrazole-3-carboxamide], for which, on 5-LOX [1], the inhibition at 5 µM was 51.7%.
As to `CC(C)(C)c1cc(NC(=O)c2cc(C3CCCCC3)n(-c3ccc(S(C)(=O)=O)cc3)n2)cc(C(C)(C)C)c1O` [5j, N-(3,5-di-tert-butyl-4-hydroxyphenyl)-1-(4-methylsulfonylphenyl)-5-cyclo-hexyl-1H-pyrazole-3-carboxamide], the inhibition at 5 µM on 5-LOX [1] was found to be 57.3%.
Same read-out and setting: in the case of `CC(C)(C)c1cc(NC(=O)c2cc(-c3ccccc3)n(-c3ccc(F)cc3)n2)cc(C(C)(C)C)c1O` [6a, N-(3,5-di-tert-butyl-4-hydroxyphenyl)-1-(4-fluorophenyl)-5-phenyl-1H-pyrazole-3-carboxamide] it was 56.8%.
